This note sets out measurements from ChEMBL document CHEMBL1201862, “PubChem BioAssay data set” (2004).

In one experiment the test system is HEK293. The experiment can be described thus: Fluorescence-based counterscreen for potentiators or agonists of NPY-Y2: cell-based high-throughput dose response assay to identify inhibitors of cyclic nucleotide gated ion channel (CNGC) activity. In this assay, the parental HEK293 cell line transfected with a cyclic-nucleotide gated ion channel (CNGC)-based cAMP sensor is used to measure inhibition of isoproterenol-induced CNGC activity by test compound. As to conditions: Homo sapiens. Format: functional. A general note: A counterscreen serves to expose hits that act by an unwanted route or on another target.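 Further: stimulus is 1 µM isoproterenol at EC100 plus PDE inhibitor Ro 20-1724 at 25 µM.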

Experiment [1] concerns the target Neuropeptide Y receptor type 2 (Homo sapiens, UniProt P49146). The experiment can be described thus: Fluorescence-based cell-based high-throughput dose response assay for agonists of NPY-Y2. [Related pubchem assays: 1703 (Screening assay (CNGC inhibitors).), 1359 (Screening assay (NPY-Y2 potentiators or agonists).), 1304 (Screening assay (NPY-Y1 potentiators or agonists).), 1710 (Screening assay (NPY-Y2 agonists).), 1791 (Summary AID.)]. Format: functional.

In experiment [2] the target is Peroxisome proliferator-activated receptor gamma/Nuclear receptor coactivator 3 (Homo sapiens, UniProt P37231). The experiment can be described thus: TR-FRET dose response biochemical High Throughput Screening assay for agonists of the steroid receptor coactivator 3 (SRC-3) recruitment by the peroxisome proliferator-activated receptor gamma (PPAR gamma): non-selective agonists. [Related pubchem assays: 1301 (Confirmation screen.), 1048 (Primary screen.)]. Format: functional.

In experiment [3] the target is Peroxisome proliferator-activated receptor gamma/Nuclear receptor coactivator 2 (Homo sapiens, UniProt P37231). The experiment can be described thus: TR-FRET dose response biochemical High Throughput Screening assay for agonists of the steroid receptor coactivator 2 (SRC-2) recruitment by the peroxisome proliferator-activated receptor gamma (PPAR gamma): non-selective agonists. [Related pubchem assays: 1297, 1032 ]. It is filed as functional. (In general: Time-resolved FRET reads energy transfer from a long-lived donor to a nearby acceptor.)

The target in experiment [4] is Peroxisome proliferator-activated receptor gamma/Nuclear receptor coactivator 1 (Homo sapiens, UniProt P37231). Put plainly: TR-FRET dose response biochemical High Throughput Screening assay for agonists of the steroid receptor coactivator 1 (SRC-1) recruitment by the peroxisome proliferator-activated receptor gamma (PPAR gamma): non-selective agonists. [Related pubchem assays (depositor defined):AID1300, AID1808, AID504735, AID631]. It is filed as protein assay.

Experiment [5] has as its target Neuropeptide Y receptor type 1 (Homo sapiens, UniProt P25929). The experiment can be described thus: Fluorescence-based counterscreen for agonists of NPY-Y2: cell-based high-throughput dose response assay for agonists of NPY-Y1. Format: functional.
The target in a further experiment is Aminopeptidase N (Plasmodium falciparum FcB1/Columbia, UniProt O96935). Put plainly: P. falciparum M1AAP inhibitors, biochemical, fluorogenic H-Leu-NHMec substrate, 1536-well (AID 1445). The arrangement: species or system Plasmodium falciparum 3D7, 3D7.
Sequence of Aminopeptidase N (O96935 whole entry): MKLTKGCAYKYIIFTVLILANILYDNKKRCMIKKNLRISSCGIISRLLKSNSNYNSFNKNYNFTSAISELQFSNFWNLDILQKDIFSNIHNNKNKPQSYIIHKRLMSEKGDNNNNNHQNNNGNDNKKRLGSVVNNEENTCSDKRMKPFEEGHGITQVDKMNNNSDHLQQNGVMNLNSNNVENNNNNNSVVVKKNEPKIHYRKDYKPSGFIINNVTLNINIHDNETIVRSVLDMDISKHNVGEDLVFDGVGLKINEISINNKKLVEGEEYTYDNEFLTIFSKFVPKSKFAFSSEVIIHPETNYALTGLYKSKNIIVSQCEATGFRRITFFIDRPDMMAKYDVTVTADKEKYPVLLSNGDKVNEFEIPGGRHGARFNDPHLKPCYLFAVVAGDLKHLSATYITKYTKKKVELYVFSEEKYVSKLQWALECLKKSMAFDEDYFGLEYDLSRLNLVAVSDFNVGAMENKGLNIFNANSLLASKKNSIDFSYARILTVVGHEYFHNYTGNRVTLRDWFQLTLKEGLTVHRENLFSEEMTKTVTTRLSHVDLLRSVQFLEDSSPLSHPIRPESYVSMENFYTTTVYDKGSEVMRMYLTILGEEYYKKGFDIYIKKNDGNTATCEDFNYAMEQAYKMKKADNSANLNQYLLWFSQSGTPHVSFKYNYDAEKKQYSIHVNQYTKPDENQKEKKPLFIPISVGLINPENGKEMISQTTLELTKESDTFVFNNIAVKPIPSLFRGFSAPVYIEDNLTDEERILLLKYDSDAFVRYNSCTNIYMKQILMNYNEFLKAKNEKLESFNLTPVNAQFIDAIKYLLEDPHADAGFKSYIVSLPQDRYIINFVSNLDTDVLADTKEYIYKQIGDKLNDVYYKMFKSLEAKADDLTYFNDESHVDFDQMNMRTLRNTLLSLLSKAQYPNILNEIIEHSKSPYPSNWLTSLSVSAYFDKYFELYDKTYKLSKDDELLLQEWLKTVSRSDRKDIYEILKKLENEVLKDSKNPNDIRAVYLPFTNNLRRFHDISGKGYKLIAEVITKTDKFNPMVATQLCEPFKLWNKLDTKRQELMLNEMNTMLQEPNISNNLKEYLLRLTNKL
The next experiment has as its target Oxytocin receptor (Homo sapiens, UniProt P30559). Put plainly: Fluorescence-based cell-based high throughput dose response assay for agonists of the Oxytocin Receptor (OXTR). [Related pubchem assays: 2435 (Primary screen (OXTR agonists in singlicate)), 434991 (Counterscreen (V1R agonists in triplicate)), 2482 (Summary (OXTR agonists)), 434963 (Confirmation screen (OXTR agonists in triplicate))]. It is filed as functional.

A short description of experiment [6]: growth suppression of PTEN-null colon cells, dose response, cell-based, HCT116 PTEN knockout (AID 1047).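 Further: HCT116 colon tumor cells with PTEN knocked out; cells exposed to compound for 60 hours before readout; potency for loss of cell viability measured by luminescence.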 It is filed as functional.
For the next experiment, the system named is INS1. The experiment can be described thus: beta cell apoptosis inhibitors, cytokine rescue, dose response, luminescence, retest (AID 449756).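 Further: cell death triggered by IL-1 beta plus TNF-alpha plus IFN-gamma mixture; protective hits raise ATP signal compared with cytokine alone wells.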 The settings on record: Rattus norvegicus. It is filed as functional, cell-based.
A short description of experiment [7]: Luminescence Cell-Based Dose Retest to Confirm Inhibitors of Cancer Stem Cells. [Related pubchem assays (depositor defined):AID2717, AID2721]. Format: functional. The settings on record: Homo sapiens.
Experiment [8] in a line: growth suppression of beta-catenin-knockout colon cells, dose response, cell-based, HCT116, human colon tumor (AID 1045).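 Further: HCT116 colon tumor cells with beta catenin knocked out; cells exposed to compound for 60 hours.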 It is filed as functional.
The target in the next experiment is Vasopressin V1a receptor (Homo sapiens, UniProt P37288). The experiment can be described thus: Counterscreen for Oxytocin Receptor (OXTR) agonists: Fluorescence-based cell-based high throughput dose response assay to identify agonists of the vasopressin 1 receptor (V1R). [Related pubchem assays: 2435 (Primary screen (OXTR agonists in singlicate)), 434991 (Counterscreen (V1R agonists in triplicate)), 2482 (Summary (OXTR agonists)) …. It is filed as functional.
Sequence of Vasopressin V1a receptor (P37288 whole entry): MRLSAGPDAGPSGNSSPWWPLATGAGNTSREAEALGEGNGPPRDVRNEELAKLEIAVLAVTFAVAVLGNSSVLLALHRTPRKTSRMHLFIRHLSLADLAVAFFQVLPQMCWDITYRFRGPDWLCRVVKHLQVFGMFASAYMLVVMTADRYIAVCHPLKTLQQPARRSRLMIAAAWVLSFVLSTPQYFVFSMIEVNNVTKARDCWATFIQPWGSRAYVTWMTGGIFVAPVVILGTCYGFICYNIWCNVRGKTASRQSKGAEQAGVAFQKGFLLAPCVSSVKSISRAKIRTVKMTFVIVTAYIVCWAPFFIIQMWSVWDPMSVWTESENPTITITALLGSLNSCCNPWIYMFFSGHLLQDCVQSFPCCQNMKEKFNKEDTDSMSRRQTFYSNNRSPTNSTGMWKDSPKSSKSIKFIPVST

For experiment [9], the system named is Vero. The experiment can be described thus: cytotoxicity of synthesized analogs in Vero cells, SAR follow-up, cytotoxicity control for West Nile virus antiviral project, cell-based, set II (AID 2402). The settings on record: Chlorocebus sabaeus. Format: functional.
Experiment [10] in a line: A Cell Based Assay for the Identification of Probe candidate Compounds with Anti- Venezuelan Equine Encephalitis virus. [Related pubchem assays: 2409, 2419, 1621, 2238, 2405, 2024, 2065, 2402, 2414, 1635, 1650, 2244 ]. Format: functional.
The subject of experiment [11] is Vero. Put plainly: cytotoxicity of synthesized analogs in Vero 76, SAR follow-up, cytotoxicity control for West Nile virus antiviral project, Vero 76 cells (AID 2414). It is filed as functional. As to conditions: Chlorocebus sabaeus.
A further experiment addresses T1, Insulin-degrading enzyme (Homo sapiens, UniProt P14735).
T1 sequence (P14735 whole entry): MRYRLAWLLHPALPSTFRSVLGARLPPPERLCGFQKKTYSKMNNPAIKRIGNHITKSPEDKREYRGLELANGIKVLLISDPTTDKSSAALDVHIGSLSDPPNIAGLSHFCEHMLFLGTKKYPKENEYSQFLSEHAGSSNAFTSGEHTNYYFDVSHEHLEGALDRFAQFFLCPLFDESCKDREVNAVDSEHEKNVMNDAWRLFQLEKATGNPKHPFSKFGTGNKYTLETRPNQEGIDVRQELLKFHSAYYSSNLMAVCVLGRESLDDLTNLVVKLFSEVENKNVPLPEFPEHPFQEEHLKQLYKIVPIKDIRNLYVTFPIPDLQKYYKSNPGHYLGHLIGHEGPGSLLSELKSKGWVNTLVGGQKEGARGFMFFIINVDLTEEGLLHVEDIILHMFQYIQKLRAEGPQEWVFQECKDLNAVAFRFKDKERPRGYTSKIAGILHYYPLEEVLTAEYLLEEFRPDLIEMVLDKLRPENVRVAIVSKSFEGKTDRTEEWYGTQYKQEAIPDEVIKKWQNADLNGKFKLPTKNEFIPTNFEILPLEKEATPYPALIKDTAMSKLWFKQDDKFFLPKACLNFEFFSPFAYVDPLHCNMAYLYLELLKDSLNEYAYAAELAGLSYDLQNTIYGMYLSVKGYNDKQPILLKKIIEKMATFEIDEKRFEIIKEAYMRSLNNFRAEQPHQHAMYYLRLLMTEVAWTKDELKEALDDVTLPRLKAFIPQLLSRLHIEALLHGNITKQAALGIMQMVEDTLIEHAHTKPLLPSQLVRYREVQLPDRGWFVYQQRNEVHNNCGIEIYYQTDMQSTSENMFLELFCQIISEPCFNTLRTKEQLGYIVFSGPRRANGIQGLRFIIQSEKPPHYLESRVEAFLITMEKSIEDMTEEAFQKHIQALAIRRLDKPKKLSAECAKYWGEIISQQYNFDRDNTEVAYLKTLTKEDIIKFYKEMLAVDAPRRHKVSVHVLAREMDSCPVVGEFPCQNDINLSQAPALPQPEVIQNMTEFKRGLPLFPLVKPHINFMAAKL
The experiment can be described thus: Dose Response: Fluorescence polarization-based cell-based high throughput dose response assay for inhibitors of insulin-degrading enzyme (IDE). [Related pubchem assays: 434962 (Primary screen (IDE inhibitors in singlicate)), 449730 (Counterscreen (Cytotoxicity in triplicate)), 435028 (Confirmation (IDE inhibitors in triplicate)), 434984 (Summary …. It is filed as functional. A general note: Fluorescence polarisation rises when a labelled molecule tumbles more slowly, as on binding a larger partner.

The nature of experiment [12]: Counterscreen for IDE inhibitors: Luminescence-based cell-based high throughput dose response assay to identify compounds that are cytotoxic to HEK cells. [Related pubchem assays: 434962 (Primary screen (IDE inhibitors in singlicate)), 449730 (Counterscreen (Cytotoxicity in triplicate)), 435028 (Confirmation (IDE inhibitors in triplicate)) …. It is filed as functional. As to conditions: HEK293.

In another experiment the target is Aspartyl aminopeptidase (Plasmodium falciparum 3D7, UniProt Q8I2J3).
Sequence of Aspartyl aminopeptidase (Q8I2J3 whole entry): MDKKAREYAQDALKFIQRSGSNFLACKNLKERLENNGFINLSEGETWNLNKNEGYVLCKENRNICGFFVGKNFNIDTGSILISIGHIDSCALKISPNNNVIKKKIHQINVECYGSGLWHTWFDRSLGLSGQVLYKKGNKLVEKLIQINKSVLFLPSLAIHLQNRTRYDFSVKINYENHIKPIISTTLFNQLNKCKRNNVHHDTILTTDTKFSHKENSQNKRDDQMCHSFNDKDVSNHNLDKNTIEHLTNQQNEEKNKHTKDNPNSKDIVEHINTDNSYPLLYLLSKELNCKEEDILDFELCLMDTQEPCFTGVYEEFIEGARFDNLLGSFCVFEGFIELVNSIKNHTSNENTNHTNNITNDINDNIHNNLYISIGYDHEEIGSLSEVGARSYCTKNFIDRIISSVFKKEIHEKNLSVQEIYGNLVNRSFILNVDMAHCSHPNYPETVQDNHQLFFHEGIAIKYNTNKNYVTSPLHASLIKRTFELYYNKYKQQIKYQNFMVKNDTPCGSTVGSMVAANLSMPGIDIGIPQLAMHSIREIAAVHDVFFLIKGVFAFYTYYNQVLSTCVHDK
The target of a further experiment is Procathepsin L (Homo sapiens, UniProt P07711).
Sequence of Procathepsin L (P07711 whole entry): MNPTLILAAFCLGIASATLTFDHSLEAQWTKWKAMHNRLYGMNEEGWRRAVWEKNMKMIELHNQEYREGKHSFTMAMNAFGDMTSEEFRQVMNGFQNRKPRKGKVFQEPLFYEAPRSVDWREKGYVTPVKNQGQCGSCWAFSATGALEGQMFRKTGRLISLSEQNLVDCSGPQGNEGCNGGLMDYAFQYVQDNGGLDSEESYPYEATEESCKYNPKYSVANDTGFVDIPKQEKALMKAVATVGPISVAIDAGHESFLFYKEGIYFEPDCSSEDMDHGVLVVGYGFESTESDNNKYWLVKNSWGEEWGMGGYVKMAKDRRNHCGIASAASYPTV
For the next experiment, the target named is Cytochrome P450 2C9 (Homo sapiens, UniProt P11712). As to conditions: Potency.
Sequence of Cytochrome P450 2C9 (P11712 whole entry): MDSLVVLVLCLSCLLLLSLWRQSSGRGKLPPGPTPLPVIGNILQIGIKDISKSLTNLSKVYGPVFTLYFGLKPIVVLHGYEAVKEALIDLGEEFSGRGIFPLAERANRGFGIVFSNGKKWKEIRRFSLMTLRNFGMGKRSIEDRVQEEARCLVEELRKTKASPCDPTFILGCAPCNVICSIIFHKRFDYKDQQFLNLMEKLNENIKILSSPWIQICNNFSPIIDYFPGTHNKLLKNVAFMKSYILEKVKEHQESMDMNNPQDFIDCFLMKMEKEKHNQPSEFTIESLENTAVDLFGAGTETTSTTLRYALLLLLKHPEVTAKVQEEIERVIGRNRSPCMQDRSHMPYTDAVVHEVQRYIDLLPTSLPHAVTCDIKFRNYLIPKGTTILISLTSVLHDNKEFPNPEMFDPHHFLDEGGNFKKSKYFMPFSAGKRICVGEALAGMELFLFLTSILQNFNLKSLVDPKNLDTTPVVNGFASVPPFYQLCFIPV
In a further experiment the target is Cytochrome P450 3A4 (Homo sapiens, UniProt P08684). As to conditions: Potency.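 Further: confirmatory qHTS run detecting inhibitors and substrates of CYP3A4.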
Sequence of Cytochrome P450 3A4 (P08684 whole entry): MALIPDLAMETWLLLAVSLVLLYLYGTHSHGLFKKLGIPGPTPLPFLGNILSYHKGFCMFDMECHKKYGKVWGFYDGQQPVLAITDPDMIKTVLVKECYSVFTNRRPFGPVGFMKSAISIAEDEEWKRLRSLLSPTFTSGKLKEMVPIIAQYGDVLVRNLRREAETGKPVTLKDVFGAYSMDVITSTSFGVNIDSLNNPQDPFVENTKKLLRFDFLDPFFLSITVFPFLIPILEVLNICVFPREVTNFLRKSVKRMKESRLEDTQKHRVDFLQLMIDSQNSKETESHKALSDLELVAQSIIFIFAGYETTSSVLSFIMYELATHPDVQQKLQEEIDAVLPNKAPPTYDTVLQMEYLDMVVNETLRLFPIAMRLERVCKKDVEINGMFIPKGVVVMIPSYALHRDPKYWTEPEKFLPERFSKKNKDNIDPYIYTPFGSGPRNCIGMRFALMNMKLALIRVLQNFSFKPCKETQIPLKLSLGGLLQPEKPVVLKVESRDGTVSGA

Activity calls are given as the source filed them.

Sequence of Neuropeptide Y receptor type 1 (P25929 whole entry): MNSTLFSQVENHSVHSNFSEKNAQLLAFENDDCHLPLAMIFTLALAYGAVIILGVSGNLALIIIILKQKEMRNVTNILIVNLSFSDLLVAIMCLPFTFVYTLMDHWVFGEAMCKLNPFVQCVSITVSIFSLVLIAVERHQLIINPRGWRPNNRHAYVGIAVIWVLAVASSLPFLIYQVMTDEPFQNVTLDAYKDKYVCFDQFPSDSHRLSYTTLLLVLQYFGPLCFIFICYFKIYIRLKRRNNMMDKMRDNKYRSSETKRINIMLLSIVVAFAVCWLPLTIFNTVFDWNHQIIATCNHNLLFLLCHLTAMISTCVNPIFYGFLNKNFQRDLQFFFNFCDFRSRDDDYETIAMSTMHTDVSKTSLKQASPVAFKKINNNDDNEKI
Sequence of Oxytocin receptor (P30559 whole entry): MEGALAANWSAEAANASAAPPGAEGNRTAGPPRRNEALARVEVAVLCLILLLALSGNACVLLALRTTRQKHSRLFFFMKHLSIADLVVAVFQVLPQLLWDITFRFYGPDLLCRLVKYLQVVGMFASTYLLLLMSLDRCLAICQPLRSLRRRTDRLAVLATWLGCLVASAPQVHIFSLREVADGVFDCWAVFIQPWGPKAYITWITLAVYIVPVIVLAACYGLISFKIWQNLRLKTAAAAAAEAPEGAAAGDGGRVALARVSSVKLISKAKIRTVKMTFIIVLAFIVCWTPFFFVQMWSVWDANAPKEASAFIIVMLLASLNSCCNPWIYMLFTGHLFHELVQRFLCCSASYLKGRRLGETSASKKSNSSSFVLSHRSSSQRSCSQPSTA
Sequence of Neuropeptide Y receptor type 2 (P49146 whole entry): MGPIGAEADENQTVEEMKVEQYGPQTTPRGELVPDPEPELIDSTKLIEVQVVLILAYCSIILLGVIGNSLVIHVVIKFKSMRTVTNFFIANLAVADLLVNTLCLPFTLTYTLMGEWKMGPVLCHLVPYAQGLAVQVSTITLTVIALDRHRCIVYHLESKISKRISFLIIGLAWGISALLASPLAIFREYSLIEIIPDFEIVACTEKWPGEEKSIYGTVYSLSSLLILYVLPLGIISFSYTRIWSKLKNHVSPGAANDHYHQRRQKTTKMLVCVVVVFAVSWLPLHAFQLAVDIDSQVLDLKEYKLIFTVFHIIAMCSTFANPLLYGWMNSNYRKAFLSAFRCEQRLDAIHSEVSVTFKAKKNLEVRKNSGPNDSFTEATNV

For orientation: EC50 means the concentration needed to bring the measured effect to its halfway point. For the compound `CC(C)OC(=O)C(C)Nc1nnc(S)nc1O` (configuration not stated), the EC50 in the experiment on HEK293 is > 35.4 µM (not active); in [1], > 35.4 µM (not active); in experiment [2] it was 35.1 µM (not active); in [3] it was 4.97 µM (active); in experiment [4], 4.26 µM (active); in [5], > 35.4 µM (not active).

A word on the IC50: it is the concentration that inhibits the measured activity by half. For the compound `CC(C)CCNC(=O)CSc1nc2ccsc2c(=O)n1NC(=O)c1ccccc1`, the IC50 on Aminopeptidase N was 87.1 µM (active).

Usually AC50 stands for the midpoint of the concentration-response curve, whichever way the signal moves. Regarding `COc1ccc(C2NCCc3c2[nH]c2ccccc32)cc1COc1ccc(F)cc1` (configuration not stated), the half-maximal effective concentration (EC50) on Oxytocin receptor is 26.7 µM (not active); in [6], 6.19 µM (active); in experiment [8], 7.05 µM (active); on Vasopressin V1a receptor it was 20.8 µM (not active). Further, the AC50 in the experiment on INS1 was 6.96 µM (active); in experiment [7], 5.89 µM (active).

One may read the CC50 as the concentration at which the toxic effect on the cells reaches its halfway point. Regarding `Cc1cccc2c(=O)n(-c3ccccc3)c(SCC(=O)Nc3ccc4c(c3)CCC4)nc12`, the cytotoxic concentration (CC50) in the experiment with Vero [9] was > 200 µM (active); with Vero [11] it was > 133 µM (active). Further, in experiment [10], the IC50 was > 133 µM (active).

Consider `COC(=O)C1=C(C)N=c2s/c(=C/c3ccoc3)c(=O)n2C1c1ccccc1` (configuration not stated), for which the IC50 was > 2.07 µM (active) on Insulin-degrading enzyme and 16.3 µM (not active) in [12].

For the compound `CC(C)(C)c1ccc(O)c(/N=C/c2cc(Br)ccc2O)c1`, the IC50 was 0.807 µM (active) at Aspartyl aminopeptidase and > 59.6 µM (not active) at Procathepsin L.

With `COc1cc2c(cc1O)C[C@H]1c3c(cc(OC)c(O)c3-2)CCN1C` [ISOBOLDINE], the concentration at half-maximal activity (AC50) on Cytochrome P450 2C9 is 25.1 µM (inconclusive); at Cytochrome P450 3A4 it was 20 µM (inconclusive).
